In patent EP4721741A1, “PHARMACEUTICAL COMPOSITION, TOPICAL PREPARATION, AND PREPARATION METHOD THEREFOR AND USE THEREOF” (Lynk Pharmaceuticals Co. Ltd., priority 2023, dated 2024):

Experiment: Pharmacokinetic (PK) study after topical application: plasma, stratum corneum, epidermis, dermis
Type: in vivo, Bama miniature pigs
Protocol: Twenty-four (12 per sex) male and female Bama miniature pigs were divided into 5 groups. The ointment was applied to an estimated 10% of the animal's body surface area.
Animals in group 1 and group 2 received a single topical application of sample 2A and sample 2B, respectively. Plasma, stratum corneum, epidermis, and dermis samples were collected before administration (0 hour, plasma only) and at 0.5, 1, 4, 8, 12, and 24 hours after administration.
Group 3 animals were topically administered ointment sample 2B once daily for 7 consecutive days. Plasma samples were collected on day 1 and day 7 before administration (0) and 0.5, 1, 4, 8, 12, and 24 hours after administration; and on days 3, 4, 5, and 6 before administration (0). […]
Group 5 animals received a single topical application of sample 3a (administered at 25 µL/m^2 with a concentration of 6 mg/mL), and blood and skin samples were collected before administration (0) and at 0.5, 1, 3, and 6 hours after administration. […] The homogenized samples were extracted using three volumes of acetonitrile and quantified against a standard curve utilizing an LC-MS/MS system.
The concentrations of the active pharmaceutical ingredient in plasma, stratum corneum, epidermis, and dermis samples were determined using a high-performance liquid chromatography-[…] (LC-MS/MS) method.

Cc1cnc(Nc2cnn(C3CC(C)(C)OC(C)(C)C3)c2)nc1-c1ccc(C(=O)NCC#N)cc1 [active pharmaceutical ingredient]
accumulation: exposure levels (AUC0-last and Cmax) in the stratum corneum, epidermis, and dermis (7 consecutive days of once-daily topical application of the ointment at 12 µg/cm^2, both sexes): no accumulation
Concentrations in plasma samples (all plasma samples, topical application, Bama miniature pigs): below the lower limit of quantification
